The source of these data is the SangsterLogP compilation.

A short description of this data set: method code SF-RC, from DOI: 10.1021/jf60225a019, PMID: 546944.
Turning to `CCOc1ccc(C(c2ccc(OCC)cc2)C(C)Cl)cc1` (stereo unspecified), the logP – broadly, a log measure of how a compound divides between an organic and an aqueous phase – was found to be 3.58.

With `CCOc1ccc(C(c2ccc(OCC)cc2)C(C)(Cl)Cl)cc1`, the logP was determined as 3.64. Next, `CCOc1ccc(C(c2ccc(OCC)cc2)C(C)[N+](=O)[O-])cc1` (stereo unspecified): 3.45; `CCOc1ccc(C(c2ccc(OCC)cc2)C(C)(C)C)cc1`: 3.16; `COc1ccc(C(c2ccc(OC)cc2)C(C)(C)C)cc1`: 3.57.

Take `CCOc1ccc(C(c2ccc(OCC)cc2)C(Cl)Cl)cc1`: the logP stood at 3.65. Next, `CCOc1ccc(C(c2ccc(C)cc2)C(C)Cl)cc1` (stereo unspecified): 3.19; `CCOc1ccc(C(c2ccc(OCC)cc2)C(C)C)cc1`: 3.61. Compound `CCOc1ccc(C(c2ccc(OCC)cc2)C(C)(C)Cl)cc1` yielded a logP of 3.25. In turn, `CCOc1ccc(C(c2ccc(C)cc2)C(C)C)cc1` (stereo unspecified) displayed a logP of 3.55. For `CCOc1ccc(C(c2ccc(C)cc2)C(C)[N+](=O)[O-])cc1` (stereo unspecified), the logP stood at 3.46.
